Experimental data reported in paper PMC9127750, “Structure-based design of CDC42 effector interaction inhibitors for the treatment of cancer” (Cell reports, 2022).

Test system: WM3248 melanoma cells, 486 antibodies
Test: Reverse phase protein arrays (RPPA);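 as to RPPA ACC1.R.C: ratio of treated to vehicle (0 µM) normalized linear protein signal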;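 as to RPPA AMPK.a2 pS345.R.V: ratio of treated to vehicle (0 µM) normalized linear protein signal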;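 as to RPPA AMPKa pT172.R.C: ratio of treated to vehicle (0 µM) normalized linear protein signal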;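 as to RPPA ASNS.R.V: ratio of treated to vehicle (0 µM) normalized linear protein signal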;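 as to RPPA Akt1.R.V: ratio of treated to vehicle (0 µM) normalized linear protein signal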;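 as to RPPA Atg5.R.C: ratio of treated to vehicle (0 µM) normalized linear protein signal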;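 as to RPPA Bim.R.V: ratio of treated to vehicle (0 µM) normalized linear protein signal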
Assay type: cell-based, Human
Conditions: 10 uM
Text: Pellets were snap frozen in liquid nitrogen and shipped to MD Anderson Cancer Center core RPPA facility for RPPA analysis (Table S5). Three biological replicates for each sample were generated.
Nomenclatures on the RPPA heatmaps: name_of_antibody.species_of_antibody.status_of_antibody. V - antibody validated; C - validation of antibody in progress; Q - antibody nonspecific; E – under evaluation; antibodies raised in M - mouse, G - goat, R - rabbit, or T - rat.

## CN(C)c1cccc(Nc2cc(-c3ccccc3)nc(C3CCNCC3)n2)c1 [ARN22089, N1,N1-dimethyl-N3-(6-phenyl-2-(piperidin-4-yl)pyrimidin-4-yl)benzene-1,3-diamine]
10W1
  RPPA B7.H4.R.C: 1.035
  RPPA B.Raf.R.C: 0.916
  RPPA B.Raf_pS445.R.V: 0.953
  RPPA BAP1.M.V: 0.957
  RPPA BCL2A1.R.V: 1.947
  RPPA BMK1.Erk5_pT218_Y220.R.V: 0.926
  RPPA BRCA1.M.C: 1.059
  RPPA BRD4.R.V: 1.134
  RPPA Bad_pS112.R.V: 1.118
  RPPA Bax.R.V: 1.004
  RPPA Bcl2.R.C: 1.048
  RPPA Bcl.xL.R.V: 1.112
  RPPA Beclin.R.C: 1.064
  RPPA Bim.R.V: 1.024
  RPPA X4E.BP1.R.V: 0.716
  RPPA X4E.BP1_pS65.R.V: 0.893
  RPPA X4E.BP1_pT37_T46.R.V: 0.934
  RPPA X14.3.3.zeta.R.V: 1.029
  RPPA X14.3.3βR.V: 1.012
  RPPA X14.3.3εM.C: 0.955
  RPPA X53BP1.R.V: 0.984
  RPPA b.Catenin.R.V: 0.868
  RPPA b.Catenin_pT41_S45.R.V: 1.019
  RPPA c.Abl.R.V: 1.140
  RPPA c.Abl_pY412.R.C: 0.995
10W3
  RPPA A.Raf_pS299.R.C: 0.989
  RPPA ACC1.R.C: 0.761
  RPPA ACC_pS79.R.V: 0.652
  RPPA ACLY_pS455.R.V: 1.060
  RPPA ACSL1.R.V: 0.743
  RPPA ACVRL1.R.C: 1.047
  RPPA ADAR1.M.V: 0.974
  RPPA AMPK.a2_pS345.R.V: 1.012
  RPPA AMPKa.R.C: 0.993
  RPPA AMPKa_pT172.R.C: 0.770
  RPPA AR.R.V: 0.980
  RPPA ARID1A.R.C: 1.025
  RPPA ASNS.R.V: 1.126
  RPPA ATM.R.V: 0.864
  RPPA ATM_pS1981.R.V: 1.016
  RPPA ATP5A.M.C: 0.859
  RPPA ATP5H.R.V: 1.047
  RPPA ATR.R.V: 0.992
  RPPA ATRX.R.C: 0.863
  RPPA ATR_pS428.R.C: 1.076
  RPPA AceCS1.R.V: 0.950
  RPPA Akt1.R.V: 1.034
  RPPA Akt1_pS473.R.V: 1.099
  RPPA Akt2.R.V: 0.982
  RPPA Akt2_pS474.R.C: 1.062
  RPPA Akt.R.V: 0.811
  RPPA Akt_pS473.R.V: 1.223
  RPPA Akt_pT308.R.V: 1.196
  RPPA Ambra1_pS52.R.C: 0.979
  RPPA Annexin.I.M.V: 0.896
  RPPA Annexin.VII.M.V: 0.983
  RPPA Atg5.R.C: 0.843
  RPPA Atg7.R.V: 0.986
  RPPA Aurora.A.R.C: 1.109
  RPPA Aurora.ABC_pT288_pT232_pT198.R.C: 0.933
  RPPA Aurora.B.R.V: 1.003
  RPPA Axl.R.V: 0.953
  RPPA B7.H3.R.C: 1.031
  RPPA B.Raf_pS445.R.V: 1.006
  RPPA BAP1.M.V: 1.063
  RPPA BCL2A1.R.V: 1.172
  RPPA BMK1.Erk5_pT218_Y220.R.V: 0.935
  RPPA BRCA1.M.C: 0.989
  RPPA BRD4.R.V: 0.839
  RPPA Bad_pS112.R.V: 1.059
  RPPA Bak.R.C: 1.018
  RPPA Bax.R.V: 0.972
  RPPA Bcl.xL.R.V: 1.015
  RPPA Beclin.R.C: 0.995
  RPPA BiP.GRP78.M.C: 1.013
  RPPA Bid.R.C: 1.021
  RPPA Bim.R.V: 0.900
  RPPA X4E.BP1.R.V: 0.590
  RPPA X4E.BP1_pS65.R.V: 1.148
  RPPA X4E.BP1_pT37_T46.R.V: 1.133
  RPPA X14.3.3.zeta.R.V: 1.033
  RPPA X14.3.3βR.V: 1.026
  RPPA X14.3.3εM.C: 1.009
  RPPA X53BP1.R.V: 0.920
  RPPA b.Actin.R.C: 1.024
  RPPA b.Catenin.R.V: 0.914
  RPPA b.Catenin_pT41_S45.R.V: 1.012
  RPPA c.Abl.R.V: 1.061
  RPPA c.Abl_pY412.R.C: 0.963
  RPPA c.IAP2.R.C: 1.023
Average
  C.Raf.R.C RPPA level: 0.940
  C.Raf_pS338.R.V RPPA level: 0.978
  CA9.R.C RPPA level: 0.980
  CD2.M.C RPPA level: 1.035
  CD4.R.V RPPA level: 0.935
  CD5.M.C RPPA level: 1.029
  CD20.R.C RPPA level: 1.026
  CD26.R.V RPPA level: 0.948
  CD29.M.V RPPA level: 1.016
  CD31.M.V RPPA level: 1.034
  CD38.R.C RPPA level: 0.977
  CD44.R.C RPPA level: 1.010
  CD45.M.V RPPA level: 1.023
  CD49b.M.V RPPA level: 1.014
  CD68.M.C RPPA level: 1.034
  CD134.R.V RPPA level: 1.019
  CD171.M.V RPPA level: 0.898
  CDK1_pT14.R.C RPPA level: 0.932
  CDK9.R.V RPPA level: 1.014
  CDT1.R.V RPPA level: 1.048
  CENP.A.R.V RPPA level: 1.017
  CHD1L.R.V RPPA level: 1.034
  CIITA.R.C RPPA level: 1.018
  COG3.R.V RPPA level: 1.062
  CRABP1.R.C RPPA level: 1.050
  CREB_pS133.R.C RPPA level: 1.130
  Calnexin.R.V RPPA level: 1.046
  Caspase.3.cleaved.R.C RPPA level: 0.944
  Caspase.7.cleaved..R.C RPPA level: 0.997
  Caspase.8.M.Q RPPA level: 0.957
  Caspase.8.cleaved.R.C RPPA level: 0.988
  Caveolin.1.R.V RPPA level: 0.941
  Cdc6.R.V RPPA level: 0.971
  Cdc42.R.C RPPA level: 0.986
  Chk1.M.C RPPA level: 1.082
  Chk1_pS345.R.C RPPA level: 0.961
  Chk2.M.V RPPA level: 1.026
  Chk2_pT68.R.C RPPA level: 1.020
  Claudin.7.R.V RPPA level: 1.203
  Collagen.VI.R.V RPPA level: 1.025
  Complex.II.Subunit.M.V RPPA level: 1.017
  Connexin.43.R.C RPPA level: 1.031
  Coup.TFII.R.C RPPA level: 0.889
  Cox2.R.C RPPA level: 0.972
  Cox.IV.R.V RPPA level: 0.954
  Creb.R.C RPPA level: 0.986
  CtIP.R.V RPPA level: 0.940
  Cyclin.B1.R.V RPPA level: 0.940
  Cyclin.D1.R.C RPPA level: 1.061
  Cyclin.D3.M.V RPPA level: 1.058
  Cyclin.E1.R.V RPPA level: 1.006
  Cyclophilin.F.M.V RPPA level: 0.965
  D.a.Tubulin.R.V RPPA level: 0.976
  DAPK2.R.C RPPA level: 0.971
  DDB.1.R.V RPPA level: 0.857
  DDR1.R.V RPPA level: 1.028
  DDR1_pY513.R.C RPPA level: 1.051
  DJ1.R.V RPPA level: 1.016
  DM.Histone.H3.R.V RPPA level: 0.928
  DNA.Ligase.IV.R.C RPPA level: 1.003
  DNA_POLG.R.V RPPA level: 1.013
  RPPA A.Raf.R.V: 0.917
  RPPA ACC1.R.C: 0.919
  RPPA ACC_pS79.R.V: 0.878
  RPPA ACLY_pS455.R.V: 1.125
  RPPA ACSL1.R.V: 0.971
  RPPA ADAR1.M.V: 1.083
  RPPA ALKBH5.R.V: 1.027
  RPPA AMPK.a2_pS345.R.V: 1.001
  RPPA AMPKa.R.C: 0.982
  RPPA AMPKa_pT172.R.C: 1.263
  RPPA AR.R.V: 0.922
  RPPA ASNS.R.V: 0.960
